This is an account of results in US8173632B2, “Process for the modification of the solid state of a compound and co-amorphous compositions produced with same” (priority 2007, dated 2012).

The conditions of data set [1]: literature reports; temperature as stated in value; cited from earlier work.
The conditions of data set [2]: room temperature; cited from earlier work.
Data set [3] can be described thus: Petri dish with non-crystalline aspirin placed on edge (flow test). It counts as physicochemical. The following applies: Petri dish placed on edge for about six weeks. The source says: (§1) Subsequent tests with the protocol of Example 1b were repeated with the order of long and short wavelengths reversed, i.e., short wavelength followed by long wavelength cycled sequenced laser treatment. This protocol also produced up to 90 percent yields of room temperature stable non-crystalline glass aspirin, which remained stable at room temperature for over 23 months. The Petri dish containing such a sample of non-crystalline aspirin was placed on edge for a period of about six weeks.

A short description of data set [4]: Room temperature storage stability of the non-crystalline / co-amorphous form against recrystallization. The following applies: for stability of the non-crystalline / co-amorphous form, tendency to recrystallization (in words): room temperature storage. The data set is classed as physicochemical.
Description: The present invention is directed to stable crystalline and non-crystalline forms of organic compositions, particularly pharmaceutical compositions, that are stable at room temperature and to processes for producing the stable crystalline and non-crystalline forms with the process of the invention.
Within an hour of the evaporation, the system stabilized with 80 percent or more of the mass of the sample cured to a clear non-crystalline form rather than a crystalline form.
After the 6 months of storage, the laser treated aspirin was studied by PXRD.
as §1
The glass cover was removed and the sample was allowed to desolvate in an open container through slow evaporation at about 20° C. and a relative humidity of 31 percent. Before the solvent had fully evaporated, the sample developed a few small areas of apparent crystallization that were surrounded with marker lines. As the evaporation continued, no significant extension of the crystal fronts was observed.

The conditions of data set [5]: bulk form, same mass; cited from earlier work.

Converted amounts (≈) assume the structure as drawn. “Also recorded” adds a separate entry of the source.

In the case of `CC(=O)Oc1ccccc1C(=O)O` [Aspirin Form II, aspirin], the “stability of prior art aspirin forms against conversion / crystallization (in words)” value in data set [1] is given as “kinetically stable at 100 K (−173° C.), but converts back to Form I at ambient conditions”.

In the case of `CC(=O)Oc1ccccc1C(=O)O` [amorphous aspirin, aspirin], in data set [1], the “stability of prior art aspirin forms against conversion / crystallization (in words)” value is reported as “converts rapidly to the crystalline Form I”.

For the compound `CC(=O)Oc1ccccc1C(=O)O` [crystalline aspirin, Aspirin], in data set [2], the solubility in water was 3330 µg/mL (≈ 18.5 mM).

Take `CC(=O)Oc1ccccc1C(=O)O` [non-crystalline aspirin, Aspirin]: in data set [3], the “flowing of the sample” value is recorded as “No flowing of the sample was observed”. Besides, in data set [4] (room temperature of about 18° to 22° C. and about 30 to 40 percent humidity, Example 1b), the “period of storage with no change in appearance of the sample” value was “over 6 months”. Also, in data set [4], the “stability of the non-crystalline / co-amorphous form, tendency to recrystallization (in words)” value is reported as “remain stable at room temperature for at least up to about a year; also recorded: stable at room temperature once the solvent had evaporated; also recorded: No crystallization has been observed in similarly prepared samples following an additional six months of storage”. In addition, the “period the non-crystalline glass remained stable” value in data set [4] (room temperature, Example 1c, short wavelength followed by long wavelength) is reported as “over 23 months”.

As for `O=C1[C@H](CC[C@H](O)c2ccc(F)cc2)[C@@H](c2ccc(O)cc2)N1c1ccc(F)cc1` [non-crystalline ezetimibe, Ezetimibe], the “stability of the non-crystalline / co-amorphous form, tendency to recrystallization (in words)” value in data set [4] is given as “remained stable for five weeks; also recorded: resisted crystallization even when adjacent to an organizing crystal front”.

In the case of `CC(=O)Oc1ccccc1C(=O)O` [vitreous aspirin, aspirin], the “dissolution of bulk vitreous aspirin compared with powdered crystals” value in data set [5] is on record as “dissolve more slowly than the same mass of finely powdered crystals of aspirin”. Besides, the “stability of prior art aspirin forms against conversion / crystallization (in words)” value in data set [1] is on record as “did not crystallize for four to five days at 298K”.
